In series [1] the target is T1, human mu opioid receptor (MOR) (Homo sapiens, UniProt P35372).
T1 construct: expressed in transfected cells; host or cells: HEK-293T
Description: BRET assay measuring G protein activation, agonist activity at human MOR. The series is classed as cell-based. To be noted: for MOR potency relative to analogs lacking substitution at position 2: dihalo-substituted core. The method, then: (§1) The diarylthiazepinamine carboxylic acids (9) were tested for agonist activity at the human mu opioid receptor (MOR) and delta opioid receptor (DOR) using bioluminescence resonance energy transfer (BRET) assays measuring G protein activation as previously described (Table 1) (Rives, M.-L. et al. 2012; Negri, A. et al. 2013).
Human MOR cDNA was transfected alongside GααB with RLuc8 inserted at position 91 (GααB—RLuc8), Gβ1 (β1), and Gγ2 fused to the full-length mVenus at its N terminus (mVenus-γ2) into HEK-293T cells (5×10^6 cells/plate) in 10-cm dishes using PEI (Polysciences Inc.; Warrington, PA) in a 1:1 ratio diluted in Opti-MEM (Life Technologies Corp.; Grand Island, NY) to assay for G protein activation as described previously (Rives, M.-L. et al. 2012; Negri, A. et al. 2013). Cells were maintained in Dulbecco's Modified Eagle Medium (high glucose #11965; Life Technologies) supplemented with 10% FBS (Premium Select, Atlanta Biologicals; Atlanta, GA) and 100 U/mL penicillin and 100 μg/mL streptomycin (#15140, Life Technologies). After 24 hours the media was changed, and the experiment was performed 24 hours later (48 hours after transfection).
(§2) Transfected cells were dissociated and re-suspended in phosphate-buffered saline (PBS). Approximately 200,000 cells/well were added to a black-framed, white well 96-well plate (#60050; Perkin Elmer; Waltham, MA). The microplate was centrifuged and the cells were re-suspended in PBS. Then 5 μM of the luciferase substrate coelenterazine H was added to each well for 5 minutes. Following coelenterazine H addition, ligands were added and the BRET signal was measured at 5 minutes on a PHERAstar FS plate reader. Quantification of the BRET signal required calculating the ratio of the light emitted by the energy acceptor, mVenus (510-540 nm), over the light emitted by the energy donor, RLuc8 (485 nm). […] Dose response curves were fit using a three-parameter logistics equation in GraphPad Prism 6.
The additional diarylthiazepinamine carboxylic acids (9i, 9j, 9k, and 91) were tested for agonist activity at the human mu opioid receptor (MOR) using bioluminescence resonance energy transfer (BRET) assays measuring G protein activation (Table 2) as previously described (Rives, M.-L. et al. 2012; Negri, A. et al. 2013; Example 2 of the present application).

The target of series [2] is T2, human delta opioid receptor (DOR) (Homo sapiens, UniProt P41143).
T2 construct: expressed in transfected cells
Description: BRET assay measuring G protein activation, agonist activity at human DOR. The series is classed as cell-based. The method, then: as §1, §2
On the technique in general: In BRET a luciferase serves as donor, and the signal depends on an acceptor being close.

Series [3] can be described thus: Solubility determination (Method A), neutral water. It is filed as physicochemical. The following applies: for solubility at 24 h: distilled water, thermodynamic from solid, neutral water, 20° C., Method A (24 h stirring), average of 2 independent trials, read-out: Aqueous Solubility (mg/mL @ 20° C.). The method, then:
A quantity of the appropriate compound sufficient to saturate the resulting solution was added to distilled water (0.50 mL) and the mixture was stirred vigorously for 24 h at room temperature (20° C.). The mixture was then centrifuged for 3 min. at 21,000×g and the stir bar was carefully removed. The mixture was then centrifuged again for 5 min. at 21,000×g and the supernatant was carefully removed by syringe and passed through a […] syringe filter. An aliquot (300 μL) of the filtered supernatant was concentrated in vacuo and the mass of the residual solids determined in order to calculate the solubility.

A short description of a further series: physchem. To be noted: 25 °C, thermodynamic from solid. The method, then: Test compounds (4 mg) were added to 200 μL of one of the tested aqueous solutions (hereinafter—buffer): 100 mM aqueous HCl (pH 1) or 100 mM Na-phosphate buffer (pH 7). The obtained suspensions/solutions with the theoretical concentration of 20 mg/mL were further allowed to equilibrate at 25° C. on a thermostatic orbital shaker for 24 hours and then centrifuged at 6000 rpm for 4 minutes and filtered through HTS filter plates using a vacuum manifold. In parallel, compound dilutions in 50% acetonitrile/HCl and 30% acetonitrile/Na-phosphate buffer mixes were prepared to theoretical concentrations of 0 mg/mL (blank), 0.1 mg/mL, 0.2 mg/mL, and 0.4 mg/mL in duplicates to generate calibration curves falling within the optimum UV absorption range. The filtrates of test compounds were diluted 100-fold with acetonitrile-buffer mixtures before measuring. The filtered supernatant test samples were transferred to 96-well plates and measured for absorbance in the 200-550 nm range with 5 nm step increment. The concentrations of compounds in supernatants were calculated using the measured absorbance and the previously determined calibration curve. Proper absorbance wavelengths for calculations were selected for each compound manually based on absorbance maxima (absolute absorbance unit values for the minimum and maximum concentration points within 0-2.5 OD range).

The test system of another series is male C57BL/6 mice. Description: Analgesic activity in hot plate assay. It is filed as in vivo, mouse. The following applies: for ED50: Mus musculus, sc, hot plate 55° C., male C57BL/6 mice, tested at 15 post-injection. The method, then:
Male C57BL/6 mice were timed for latency to jump on a hot-plate apparatus set to 55° C., using a 30 s cutoff to prevent tissue damage. Following a baseline test, animals were injected subcutaneously (s.c.) with escalating doses of drug and tested at […] (time of maximal effect). Dose-response curves were fit via nonlinear regression using GraphPad Prism (La Jolla, CA).
(In hot-plate and tail-flick tests a longer latency is read as antinociception.)

The mark [4] stands for this setting: BRET G protein activation, HEK-293T cells, error ± SEM of 2 or more independent trials, read-out: Human MOR (EC50).
[5] abbreviates: BRET G protein activation, error ± SEM of 2 or more independent trials, read-out: Human DOR (EC50).

Counter-ions that a name gives are not always drawn. Like-named read-outs stand apart in the source and are kept apart here.

Broadly, the EC50 is the midpoint of the concentration-response curve. Usually Emax stands for the maximal effect, on the per cent scale that the assay sets. What is called ED50 is the dose at which the effect has come halfway, by size or by number of responders.

T1 sequence (P35372 whole entry): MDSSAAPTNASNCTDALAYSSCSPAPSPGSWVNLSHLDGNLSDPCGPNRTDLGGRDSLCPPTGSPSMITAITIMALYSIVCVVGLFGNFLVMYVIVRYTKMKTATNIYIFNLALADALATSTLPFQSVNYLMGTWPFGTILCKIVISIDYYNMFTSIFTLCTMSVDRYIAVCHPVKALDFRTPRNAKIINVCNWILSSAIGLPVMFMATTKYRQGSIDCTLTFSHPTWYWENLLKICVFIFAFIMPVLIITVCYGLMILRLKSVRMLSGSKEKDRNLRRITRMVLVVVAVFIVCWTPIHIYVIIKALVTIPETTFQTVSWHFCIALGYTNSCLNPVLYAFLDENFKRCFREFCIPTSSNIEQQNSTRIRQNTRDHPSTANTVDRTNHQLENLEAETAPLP
T2 sequence (P41143 whole entry): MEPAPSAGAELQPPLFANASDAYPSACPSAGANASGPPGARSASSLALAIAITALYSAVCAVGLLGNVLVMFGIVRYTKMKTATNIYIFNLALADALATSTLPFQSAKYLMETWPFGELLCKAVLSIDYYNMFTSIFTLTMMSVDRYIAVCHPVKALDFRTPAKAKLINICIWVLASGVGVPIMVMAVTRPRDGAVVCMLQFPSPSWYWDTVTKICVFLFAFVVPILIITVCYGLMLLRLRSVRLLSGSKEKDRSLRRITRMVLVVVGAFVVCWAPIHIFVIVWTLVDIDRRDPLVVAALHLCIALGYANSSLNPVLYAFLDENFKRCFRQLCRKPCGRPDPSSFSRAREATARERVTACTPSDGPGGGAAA

On to `Cc1ccc2c(c1)S(=O)(=O)N(C)c1ccccc1C2NCCCCCCC(=O)O` (stereo not shown) [3-Methyl-substituted Analog, reference compound], for which the EC50 in series [1] is 890 nM; in series [2], > 10000 nM.
Regarding `CCOC(=O)CCCCCCNC1c2ccccc2N(C)S(=O)(=O)c2cc(SC)ccc21` (stereo not shown) [Compound 8c, Ethyl 7-((6-methyl-3-(methylthio)-5,5-dioxido-6,11-dihydrodibenzo[c,f][1,2]thiazepin-11-yl)amino)heptanoate], the EC50 in series [1] (setting [4]) is 222 nM. Also, in series [2] (BRET G protein activation), the Emax was found to be 70% and the “Human DOR agonist type (partial / full agonist)” value was “partial agonist”. Further, the EC50 in series [2] (setting [5]) amounted to 7000 nM.
As for `C#Cc1ccc2c(c1)S(=O)(=O)N(C)c1ccccc1C2NCCCCCCC(=O)O` (stereo not shown) [Compound 9a, 7-((3-Ethynyl-6-methyl-5,5-dioxido-6,11-dihydrodibenzo [c,f][1,2]thiazepin-11-yl)amino)heptanoic acid], the EC50 in series [1] (setting [4]) was determined as 53.3 ± 18 nM; in series [2] (setting [5]) it was 5900 ± 300 nM.
As for `CN1c2ccccc2C(NCCCCCCC(=O)O)c2cc(F)c(Br)cc2S1(=O)=O` (stereo not shown) [Compound 9b, 7-((3-Bromo-2-fluoro-6-methyl-5,5-dioxido-6,1-dihydrodibenzo [c,f][1,2]thiazepin-11-yl)amino) heptanoic acid hydrochloride salt], the concentration for a half-maximal effect (EC50) in series [1] was determined as 83.1 ± 5.7 nM; in series [2] it was 11500 ± 2200 nM. Further, the “MOR potency relative to analogs lacking substitution at position 2” value in series [1] is “equipotent or more potent”. The solubility at 24 h in series [3] stood at 9.8 mg/mL. For the same compound, the “Solubility relative to monohalo counterpart bromotianeptine” value in series [3] (neutral unbuffered water) is reported as 2-3 fold. In addition, the solubility in “physchem” (pH 1, simulated gastric fluid) was 1100 µg/mL; in the series “physchem” (pH 7, aqueous buffer), 840 µg/mL. In the series with male C57BL/6 mice, this compound displayed an ED50 of 5.1 mg/kg. For the same compound, the “Analgesic activity in the mouse hot plate assay” value in the series on male C57BL/6 mice (much higher potency than tianeptine) was “potent analgesics”.
In the case of `CSc1ccc2c(c1)S(=O)(=O)N(C)c1ccccc1C2NCCCCCCC(=O)O` (stereo not shown) [Compound 9c, 7-((6-Methyl-3-(methylthio)-5,5-dioxido-6,1l-dihydrodibenzo [c,f][1,2]thiazepin-11-yl)amino)heptanoic acid], in series [1] (setting [4]), the half-maximal effective concentration (EC50) came to 41.8 nM. Further, in series [2] (BRET G protein activation), the Emax was 51%, the “Human DOR Emax” value stood at 51% and the “Human DOR agonist type (partial / full agonist)” value is on record as “partial agonist”. Besides, the EC50 in series [2] (setting [5]) turned out to be 2060 nM. Moreover, the “DOR Emax relative to the control agonist DPDPE” value in series [2] (FIG. 1) is “lesser Emax than the control agonist DPDPE”.
Regarding `CN1c2ccccc2C(NCCCCCCCC(=O)O)c2ccc(Br)cc2S1(=O)=O` (stereo not shown) [Compound 9d, 8-((3-Bromo-6-methyl-5,5-dioxido-6,11-dihydrodibenzo [c,f][1,2]thiazepin-11-yl)amino) octanoic acid hydrochloride salt], the EC50 in series [1] was determined as 56 ± 24 nM; in series [2], 1700 ± 40 nM.
Regarding `CN1c2ccccc2C(NCCCCCCCCC(=O)O)c2ccc(I)cc2S1(=O)=O` (stereo not shown) [Compound 9f, 9-((3-Iodo-6-methyl-5,5-dioxido-6,11-dihydrodibenzo [c,f][1,2]thiazepin-11-yl)amino) nonanoic acid hydrochloride salt], the EC50 in series [1] worked out at 22 ± 14 nM; in series [2], 530 ± 340 nM.
Regarding `CN1c2ccccc2C(NCCCCCCCCCCC(=O)O)c2ccc(I)cc2S1(=O)=O` (stereo not shown) [Compound 9h, 11-((3-Iodo-6-methyl-5,5-dioxido-6,11-dihydrodibenzo [c,f][1,2]thiazepin-11-yl)amino)undecanoic acid hydrochloride salt], the EC50 came out at 110 ± 29 nM in series [1] and 700 ± 305 nM in series [2].
In the case of `CN1c2ccccc2C(NCCCCCCC(=O)O)c2cc(Cl)c(Cl)cc2S1(=O)=O.Cl` (stereo not shown) [Compound 9i, 7-((2,3-dichloro-6-methyl-5,5-dioxido-6,11-dihydrodibenzo [c,f][1,2]thiazepin-11-yl)amino)heptanoic acid hydrochloride salt], in series [1], the midpoint of the response, the EC50, lay at 172 nM and the “MOR potency relative to analogs lacking substitution at position 2” value was “equipotent or more potent”.
`CN1c2ccccc2C(NCCCCCCC(=O)O)c2cc(F)c(Cl)cc2S1(=O)=O.Cl` (stereo not shown) [Compound 9j, 7-((3-chloro-2-fluoro-6-methyl-5,5-dioxido-6,11-dihydrodibenzo [c,f][1,2]thiazepin-11-yl)amino)heptanoic acid hydrochloride salt]: the EC50 in series [1] amounted to 129 nM. The “MOR potency relative to analogs lacking substitution at position 2” value in series [1] is “equipotent or more potent”. Further, the solubility is 5300 µg/mL in “physchem” (pH 1, simulated gastric fluid) and 70 µg/mL in the series “physchem” (pH 7, aqueous buffer).
For `CN1c2ccccc2C(NCCCCC(=O)O)c2cc(F)c(Br)cc2S1(=O)=O.Cl` (stereo not shown) [Compound 9l, 5-((3-bromo-2-fluoro-6-methyl-5,5-dioxido-6,11-dihydrodibenzo [c,f][1,2]thiazepin-11-yl)amino)pentanoic acid hydrochloride salt], in series [1], the EC50 is 45 nM and the “MOR potency relative to analogs lacking substitution at position 2” value was “equipotent or more potent”.
`CCOC(=O)CCCCCCNC1c2ccccc2N(C)S(=O)(=O)c2ccc(Cl)cc21` (stereo not shown) [Compound 15a, reference compound] showed a half-maximal effective concentration (EC50) in series [1] of 4150 ± 930 nM.
As for `CCOC(=O)CCCCCCNC1c2ccccc2N(C)S(=O)(=O)c2ccccc21` (stereo not shown) [Compound 15c, reference compound], the EC50 in series [1] stood at 156 ± 84.7 nM.
Take `COCCCNC1c2ccccc2N(C)S(=O)(=O)c2ccc(Cl)cc21` (stereo not shown) [Compound 16a, reference compound]: the EC50 in series [1] (setting [4]) was found to be 16900 ± 5220 nM.
With `COCCCNC1c2ccccc2N(C)S(=O)(=O)c2cc(Cl)ccc21` (stereo not shown) [Compound 16b, reference compound], the EC50 in series [1] (setting [4]) worked out at 264 ± 85.3 nM.
Turning to `COCCCNC1c2ccccc2N(C)S(=O)(=O)c2ccccc21` (stereo not shown) [Compound 16c, reference compound], the EC50 in series [1] (setting [4]) was 2010 ± 700 nM.
Compound `CN1c2ccccc2C(NCCCCCCC(=O)[O-])c2ccc(Cl)cc2S1(=O)=O.[Na+]` (stereo not shown) [Tianeptine (Na salt), Tianeptine, reference compound] came in with an ED50 in the series with male C57BL/6 mice of 15 mg/kg.
Take `CN1c2ccccc2C(NCCCCCCC(=O)O)c2ccc(Br)cc2S1(=O)=O.Cl` (stereo not shown) [bromotianeptine, reference compound]: the solubility at 24 h in series [3] is 4.5 mg/mL. Further, the solubility in the series “physchem” (pH 1, simulated gastric fluid) was < 100 µg/mL; in “physchem” (pH 7, aqueous buffer), 620 µg/mL.

The record behind these values is US11787772B2, “Carboxylic diarythiazepineamines as mixed mu- and delta-opioid receptor agonists” (THE TRUSTEES OF COLUMBIA UNIVERSITY IN THE CITY OF NEW YORK, priority 2017, dated 2023).
